# Test results published in patent publication US20060121117A1, “Anti-angiogenic compositions and methods of use” (ANGIOTECH PHARMACEUTICALS, INC., priority 1993, published 2006).
# Legend:
# [1] = MTX release from PCL paste; format: physicochemical; details: high MePEG concentrations (20% MePEG in PCL)
# Description: A known weight of a polymer (typically a 2.5 mg pellet) is added to a 15 ml test tube containing 14 ml of a buffer containing 10 mm Na2HPO4—NaH2PO4, 0.145 m NaCl and 0.4 g/l bovine serum albumin. The tubes are capped and tumbled at 37° C. At specific times all the 14 ml of the liquid buffer are removed and replaced with fresh liquid buffer.
# For MTX the collected buffer is applied directly to the HPLC column with no need for extraction in methylene chloride. MTX is analyzed at 302 nm. For Vanadium containing compounds the liquid buffer is analyzed directly using a UV/VIS spectrometer in the 200 to 300 nm range.
# Methotrexate (“MTX”; Sigma Chemical Co.) is ground in a pestle and mortar to reduce the particle size to below 5 microns. It is then mixed as a dry powder with polycaprolactone (molecular wt 18000 Birmingham Polymers, Alabama USA). The mixture is heated to 65° C. for 5 minutes and the molten polymer/methotrexate mixture is stirred into a smooth paste for 5 minutes. The molten paste is then taken into a 1 mL syringe, and extruded as desired.
# [2] = tested on: chick chorioallantoic membrane (CAM); test: Chick chorioallantoic membrane (CAM) assay, agent in methylcellulose disks; details: for Embryos Evaluated positive/total: 48 hours
# synoviocytes = test: 3H-thymidine incorporation into synoviocytes; format: cell-based; details: 6 or 24 hours incubation
# Description: At these times, 1×10^−6 cpm of ^3H-thymidine was added to the cell culture and incubated for 2 hours at 37° C. The cells were placed through a cell harvester, washed through a filter, the filters were cut, and the amount of radiation contained in the filter sections determined. Once the amount of thymidine incorporated into the cells was ascertained, it was used to determine the rate of cell proliferation. This experiment was repeated three times and the data collated together.
# neutrophils [3] = test: Neutrophil superoxide anion generation; format: cell-based, human; details: paclitaxel at 28 μM
# Description: (§1) Opsonization of crystals or zymosan was done with 50% heparinized plasma at a concentration of 75 mg of CPPD or 12 mg of zymosan per ml of 50% plasma. Crystals or zymosan were incubated with plasma for 30 min. at 37° C. and then washed in excess HBSS.
# Superoxide anion concentrations were measured using the superoxide dismutase inhibitable reduction of cytochrome c assay. Briefly, 25 mg of crystals or 0.5 mg of zymosan was placed in a 1.5 ml capped Eppendorf tube and warmed to 37° C. 0.5 ml of cells at 370 C were added together with ferricytochrome c (final concentration 1.2 mg/ml) and the cells were activated by shaking the capped tubes. […] Control tubes were set up under the same conditions with the inclusion of superoxide dismutase at 600 units per ml.
# synovial fibroblasts = test: Synoviocyte proliferation (Trypan blue counting); details: 24 hours
# neutrophils [4] = test: Neutrophil viability (LDH release); details: paclitaxel at 46 μM for one hour at 37° C.
# Description: Neutrophils were prepared from freshly collected human citrated whole blood. Briefly, 400 ml of blood were mixed with 80 ml of 4% dextran T500 (Phamacia LKB, Biotechnology AB Uppsala, Sweden) in HBSS and allowed to settle for 1 h. Plasma was collected continuously and 5 ml applied to 5 ml of Ficoll Paque (Pharmacia) in 15 ml polypropylene tubes (Corning, N.Y.). Following centrifugation at 500×g for 30 min, the neutrophil pellets were washed free of erythrocytes by 20 s of hypotonic shock. Neutrophils were resuspended in HBSS, kept on ice and used for experiments within 3 h. Neutrophil viability and purity was always greater than 90%.
# Cells were incubated for 20 minutes at 33° C. then for 10 minutes at 37° C. before addition to crystals or zymosan.
# Control tubes containing cells with drug (crystals absent) from degranulation experiments were also assayed for LDH.
# c-fos mRNA = test: c-fos expression in chondrocytes (Northern blot); format: cell-based, bovine; details: 10^−6 M, 10^−7 M and 10^−8 M for 2 hours, then TNF 30 ng/ml for 1 hour
# Description: Total RNA from bovine articular chondrocytes was isolated by the acidified guanidine isothiocyanate method and the levels of c-fos mRNA determined by Northern blot analysis. Denatured RNA samples (12 μg) were analyzed by gel electrophoresis in a denaturing 1% agarose gel, transferred to a nylon membrane (Bio-Rad), cross-linked with an ultraviolet cross-linker (Stratagene UV stratalinker 1800), and hybridized with ^32P-labeled rat c-fos DNA. mRNA for tubulin and total RNA were used as controls. To determine tubulin mRNA, the blots described above were subsequently stripped of DNA and re-probed with ^32P-labeled rat P-tubulin cDNA. This experimented was conducted three times and the data collated.
# neutrophils [5] = test: Neutrophil chemiluminescence assay; format: cell-based; details: Homo sapiens, paclitaxel at 28 μM, read-out: inhibition of the peak chemiluminescence response
# Description: as §1
# All chemiluminescence studies were performed at a cell concentration of 5,000,000 cells/ml in HBSS with CPPD (50 mg/ml). In all experiments 0.5 ml of cells was added to 25 mg of CPPD or 0.5 mg of zymosan in 1.5 ml capped Eppendorf tubes. 10 μl of luminol dissolved in 25% DMSO in HBSS was added to a final concentration of 1 μM and the samples were mixed to initiate neutrophil activation by the crystals or zymosan. Chemiluminescence was monitored using an LKB Luminometer (Model 1250.) at 37° C. with shaking immediately prior to measurements to resuspend the crystals or zymosan. Control tubes contained cells, drug and luminol (crystals absent).
# normal chondrocytes = test: Chondrocyte viability (Trypan blue counting); format: cell-based; details: up to 10^−5 M, 72 hours
# collagenase mRNA = test: IL-1 induced collagenase expression in chondrocytes (Northern blot); format: cell-based, bovine; details: 10^−6 M, 2 hours prior to IL-1 (20 ng/ml), further 16 hours
# Description: The cells were then incubated for a further 16 hours. Total RNA from bovine articular chondrocytes was isolated by the acidified guanidine isothiocyanate method and the collagenase mRNA determined by Northern blot analysis. The RNA samples were prepared as described above using ^32P-labeled rat collagenase cDNA.
# neutrophils [6] = test: Neutrophil degranulation assay (myeloperoxidase, lysozyme)
# [7] = Release from 50:50 ELVAX:poly-l-lactic acid microspheres; format: physicochemical; details: 18 hours of tumbling at 37° C.
# Description: Microspheres are then prepared in a dissolution machine (Six-spindle dissolution tester, VanderKanp, Van Kell Industries Inc., U.S.A.) in triplicate at 200 rpm, 42° C., for 3 hours. Microspheres so prepared are washed twice in water and sized on the microscope.
# [8] = Vanadyl sulfate release from PCL paste; format: physicochemical
# Description: Drug release was determined essentially as described above in Example 33, except that a 65 mg pellet of a 10% w/w VOSO4:PCL was suspended in 10 ml of water and the supernatant analyzed for released Vanadyl Sulphate using UV/Vis absorbance spectroscopy of the peak in the 200 to 300 nm range.
smiles,measurement,setting,value
"CN(Cc1cnc2nc(N)nc(N)c2n1)c1ccc(C(=O)N[C@@H](CCC(=O)O)C(=O)O)cc1 [MTX, Methotrexate]",amount of MTX released from the polymer,[1],substantial amounts
CC(=O)O[C@H]1C(=O)[C@@]2(C)[C@H]([C@H](OC(=O)c3ccccc3)[C@]3(O)C[C@H](OC(=O)[C@H](O)[C@@H](NC(=O)c4ccccc4)c4ccccc4)C(C)=C1C3(C)C)[C@]1(OC(C)=O)CO[C@@H]1C[C@@H]2O [Paclitaxel],Embryos Evaluated positive/total,[2]; 0.25 μg paclitaxel in methylcellulose disk,2/11
same,Embryos Evaluated positive/total,[2]; 0.5 μg paclitaxel in methylcellulose disk,6/11
same,Embryos Evaluated positive/total,[2]; 1 μg paclitaxel in methylcellulose disk,6/15
same,Embryos Evaluated positive/total,[2]; 5 μg paclitaxel in methylcellulose disk,20/27
same,Embryos Evaluated positive/total,[2]; 10 μg paclitaxel in methylcellulose disk,16/21
same,Embryos Evaluated positive/total,[2]; 30 μg paclitaxel in methylcellulose disk,31/31
same,time for which avascular zones did not revascularize after application,[2]; in one study,at least 7 days
same,earliest time at which inhibition of angiogenesis occurs after application,[2]; observed over the 48 hour duration,9 h
same,avascular zone diameter,"[2]; paclitaxel in methylcellulose disk, 48 hour exposure",6 mm
same,avascular gradient scale (maximal avascular zone),"[2]; within 48 hours, depending on concentration",3
same,lowest concentration inhibiting incorporation of 3H-thymidine,synoviocytes,10^−8 M
same,effect on superoxide anion production,neutrophils [3]; opsonised zymosan,less dramatic than the inhibition of CPPD activation but was significant at all times
same,effect on superoxide anion production,neutrophils [3]; plasma opsonised CPPD crystals,decrease in the amount of superoxide generated at all times
same,toxicity to synovial fibroblasts in vitro,synovial fibroblasts; 10^−6 M and 10^−5 M,toxic
same,lowest concentration inhibiting proliferation of the synoviocytes,synovial fibroblasts,10^−7 M
same,LDH release,neutrophils [4],less than 5 % of total
same,effect on c-fos expression,c-fos mRNA,does not alter c-fos expression
same,inhibition at 28 µM,neutrophils [5]; plasma opsonised zymosan,45%
same,inhibition at 28 µM,neutrophils [5]; plasma opsonized CPPD,52%
same,effect on viability of normal chondrocytes,normal chondrocytes,does not affect the viability
same,effect on IL-1 induced collagenase expression,collagenase mRNA,completely inhibited
same,inhibition at 28 µM,"neutrophils [6]; Homo sapiens, Neutrophil, […], read-out: inhibition of MPO release",50%
same,effect on lysozyme release,"neutrophils [6]; paclitaxel at 28 μM, plasma opsonized CPPD",reduced lysozyme release
same,effect on myeloperoxidase release,"neutrophils [6]; plasma opsonized CPPD, paclitaxel 28 μM (FIG. 32A)",significantly inhibited
same,% of the total drug released from the microspheres (fluorescence assay),[7],6%
same,% of the total drug released from the microspheres (uv/vis assay),[7],10.3%
"O=S(=O)([O-])[O-].[O]=[V+2] [VOSO4, Vanadyl Sulfate]",amount of VOSO4 released,"[8]; after 2 days, 65 mg pellet of 10% w/w VOSO4:PCL in 10 ml water",3 mg
same,amount of VOSO4 released,"[8]; by day 6, 65 mg pellet of 10% w/w VOSO4:PCL in 10 ml water",5 mg
same,amount of VOSO4 released,"[8]; in 6 hours, 65 mg pellet of 10% w/w VOSO4:PCL in 10 ml water",1 mg
